# From patent publication US5773424A, “Treatment of toxoplasmosis” (priority 1994, dated 1998)
# Entries after “also recorded” stand apart in the source; their conditions may differ.
# How the values were obtained:
# [1] = system: Toxoplasma gondii grown in human fibroblasts; assay: Incorporation of radiolabeled uracil (parasite survival); type: cell-based; details: for activity at 5 µM / activity at 10 µM / activity at 25 µM / activity at 50 µM: Toxoplasma gondii, Fibroblast, [5,6-3H]uracil incorporation, read-out: percent survival of Toxoplasma gondii grown in human fibroblasts
# Description: Incorporation of Radiolabeled Uracil. […] Uptake and incorporation of radiolabeled uracil into nucleic acids of T. gondii were carried out, at least in triplicates, in tissue culture, using monolayers of human foreskin fibroblasts infected with T. gondii. The fibroblasts were cultured in no more than 30 passages in Dulbecco's modified Eagle medium, containing 100 units/mL penicillin G and 100 μg/mL streptomycin sulfate, and 10% FBS, pH 7.2. Briefly, confluent cells (4-5 day incubation) were cultured for 24 hours in the 24-well flat bottom microtiterplates (~5×10^5 /1 mL/well) and incubated at 37° C. in 5% CO2, 95% air to allow the cells to attach. The medium was then removed and the cells were infected with isolated T. gondii in medium with 3% FBS (1 parasite/cell). After 1 hour incubation, the cultures were washed with media with 10% FBS to remove extracellular parasites. FBS was maintained at a final concentration of 10%. […] After an additional 18 hours incubation, the medium was replaced with 1 mL drug free media containing […] (2 μCi/mL) and incubated for another 6 hours, after which the media was removed. The fibroblasts were released from the wells by trypsinization with the addition of 200 μL trypsin/EDTA (2.5×) to each well. After 10 minutes incubation, 1 mL of ice cold 10% trichloroacetic acid (TCA) was added to each well. The plates were then placed on a shaker to insure the detachment of the cells. The suspended contents of each well were filtered through GF/A 2.4 cm glass microfiber filters (Whatman, Hillsboro, Oreg.), which were prewashed each with 1 mL double distilled H2 O and dried. After filtration, the filters were washed with 10 mL methanol, left to dry, and then placed in scintillation vials containing 5 mL of Econo-Safe scintillation fluor (Research Products International Corp., Mount Prospect, Ill.), and radioactivity was counted using an LS5801 Beckman scintillation counter.
# [2] = system: uninfected human foreskin fibroblasts; assay: Toxicity of compounds, MTT assay; type: cell-based; details: for Toxicity to host cells (human fibroblasts), in words: therapeutic doses (5-50 μM tested)
# Description: (§1) Toxicity of compounds. Toxicity of the different doses of the various analogues were performed at least in triplicates, using a modification of the Microculture Tetrazolium (MTT) assay and uninfected monolayers of human foreskin fibroblasts. Briefly, confluent cells were incubated for at least 24 hours in the 96-well flat bottom microtiterplates (~10^5 /200 μL/well) and incubated at 37° C. in 5% CO2, 95% air to allow the cells to attach. The medium was then replaced with 200 μL of fresh medium. […] The cultures were then incubated for 48 hours, after which 50 μL of sterile MTT solution (2 mg/1 mL PBS) was added to each well. MTT solution was sterilized by filtration through 0.22 μm filters (Costar, Cambridge, Mass.). After 4 hours incubation, the medium was removed and 100 μL of dimethylsulfoxide (DMSO) was added to each well and the plates were shaken gently for 2-3 minutes to dissolve the formed formazan crystals. The absorbance was measured at 540 nm, using a computerized microtiterplate reader (Themomax, Molecular Division)
# [3] = Toxicity of compounds, MTT assay; type: cell-based, human; details: human, foreskin fibroblasts, MTT, 48 hours, read-out: percent survival of uninfected human fibroblasts
# Description: as §1
# [4] = system: Toxoplasma gondii RH strain tachyzoites; assay: Chemotherapy of Toxoplasma-infected mice; type: in vivo
# Description: Chemotherapy of Toxoplasma-Infected Mice. Female CD-1 mice, approximately 22 g (Charles River Laboratories, Wilmington, Mass.), were infected with 200 RH strain tachyzoites/mouse by i.p. injection. The treatment group received 100 mg/kg NBMPR-P i.p. injections every 8 hours on Days 0, 2, 4 and 5, in proportion of 0.1 ml/10 g. Mice were maintained under controlled temperature (25° C.) and light (12/12 hours, light/dark), food and water ad libitum, and survival was monitored daily.
# Each mouse was infected with 200 tachyzoites and the treatment group received 100 mg/kg NBMPR-P i.p. injections every 8 hours on Days 0, 2, 4 and 5 in proportion of 0.1 ml/10 g. The survivorship of the treated mice can be improved by manipulation of the dose and regimen of NBMPR.
# [5] = survivors/total, 100 mg/kg i.p. every 8 hours on Days 0, 2, 4 and 5
Structure (SMILES),activity at 5 µM [1] [%],activity at 10 µM [1] [%],activity at 25 µM [1] [%],activity at 50 µM [1] [%],"Toxicity to host cells (human fibroblasts), in words [2]","viability at 48 h, 5 µM [3] [%]","viability at 48 h, 10 µM [3] [%]","viability at 48 h, 25 µM [3] [%]","viability at 48 h, 50 µM [3] [%]",life span of infected mice ([4]; increased from 6 days without treatment) [days],"Survival Day 7 [4, 5]","Survival Day 8 [4, 5]","Survival Day 9 [4, 5]","Survival Day 6 ([4]; survivors/total, 100 mg/kg i.p. every 8 hours on Days 0, 2, 4 and 5, untreated 0/3)","Effect on T. gondii grown in human fibroblasts, in words ([1]; in vitro)","Effect on host (mammalian) cells, in words ([2]; doses up to 100 μM)"
"OC[C@H]1O[C@@H](n2cnc3c(NCc4ccccc4)ncnc32)[C@H](O)[C@@H]1O [Compound 45, N^6 -Benzyladenosine]",62.8,41.8,52.9,26.3,toxic to host cells at therapeutic doses,46.3,21.8,36.5,31,–,–,–,–,–,–,–
"COc1ccc(C(=O)Nc2ncnc3c2ncn3[C@@H]2O[C@H](CO)[C@@H](O)[C@H]2O)cc1 [Compound 47, N^6 -(p-Methoxybenzolyl)adenosine (N^6 -anisoyladenosine)]",94.2,93.1,104,125,–,92.9,92.6,99.2,97.4,–,–,–,–,–,–,–
"O=[N+]([O-])c1ccc(CSc2ncnc3c2ncn3[C@@H]2O[C@H](COP(=O)(O)O)[C@@H](O)[C@H]2O)cc1 [NBMPR-P, 6-[4-nitrobenzylthio]-9-β-D-ribofuranosyl purine 5'-monophosphate]",75.3,53.3,21.4,10.2,no significant toxic effect,103,94.6,93.6,96.1,8,3/3,2/3,0/3,3/3,inhibited; also recorded: kill T. gondii grown in human fibroblasts in a dose dependent manner; also recorded: effectively eliminate T. gondii parasites,did not affect host cells; also recorded: without affecting mammalian cells
"CCc1nc(N)nc(N)c1-c1ccc(Cl)cc1 [Pyrimethamine, reference compound]",25.9,12.9,10.2,13.8,–,104,98.8,108,118,–,–,–,–,–,–,–
"Nc1ccc(S(=O)(=O)Nc2ncccn2)cc1 [Sulfadiazine, reference compound]",74.6,64.8,66.3,66.3,–,98.2,99.7,99.8,102,–,–,–,–,–,–,–
